Experimental data reported in PMC7352571, “New Anti-Cancer Strategy to Suppress Colorectal Cancer Growth Through Inhibition of ATG4B and Lysosome Function” (Cancers, 2020).

What was measured:
[1] = tested on: proteolytic activity of lysosomes in HeLa cells; experiment: DQ-BSA Red assay; type: cell-based; conditions: 6 h, 163N 5 or 10 µM, Baf 0.5 µM, E64D 25 µM plus pepstatin A 50 µM
Method: Figure 5 163N causes lysosome dysfunction. […] . (C) HeLa cells were treated with or without 163N (10 µM) for 6 h, followed by immunostaining using cathepsin B and LAMP1 antibody. The colocalization of cathepsin B and LAMP1 was measured.
DQ-BSA Red assay: cells were incubated with 10 µg/mL DQ-BSA Red in EBSS medium at 37° for 1.5 h, and then new medium with or without the indicated compounds were added for another 4 or 6 h, and then fluorescence microscopy was used for detecting the intensity of red fluorescent.
Supplementary Materials: New Anti-Cancer Strategy
to Suppress Colorectal Cancer Growth Through
Inhibition of ATG4B and Lysosome Function
Figure S1. Compounds with a 6-methylpyrimidine-2,4-diamine structure could cause lysosome
inhibition. (A) The structure of the representative lysosome inhibitors. (B) GFP-LC3B HeLa cells were
treated with Baf (0.5 µM) or 5 µM of different lysosome inhibitors for 2 h, then LysoTracker Red (LTR,
25 ng/mL) was used and the relative LTR fluorescent intensity was measured. (C) HeLa cells were
firstly treated with 10 µg/mL DQ-BSA for 1.5 h, and then treated with Rap (1 µM), Baf (0.5 µM), E64D
(25 µM) plus pepstatin A (50 µM), or 5 µM of different lysosome inhibitors for 4 h.
Cancers 2020, 12, x; www.mdpi.com/journal/ cancers […]

[2] = tested on: lysosome acidity in HeLa cells; experiment: LysoTracker Red (LTR) assay, HeLa; type: cell-based; conditions: 6 h, 163N 5 or 10 µM, Rap 1 µM, E64D 25 µM plus pepstatin A 50 µM
Method: Figure 5 163N causes lysosome dysfunction. […] (C) HeLa cells were treated with or without 163N (10 µM) for 6 h, followed by immunostaining using cathepsin B and LAMP1 antibody. The colocalization of cathepsin B and LAMP1 was measured.
LTR assay: cells were incubated with LTR (25 nM) in HBSS medium at 37° for 30 min, and then fluorescence microscopy was used for detecting fluorescence intensity.

HeLa cells = experiment: CCK-8 cell viability assay, HeLa; type: cell-based; conditions: Homo sapiens, HeLa; CCK-8 assay, 48 h
Method: (§1) Cells were seeded and incubated overnight in 96-well plates at a density of 5 × 10^3 cells/well. […] A total of 10 µL CCK-8 were added to each well for additional 1 h and cell viability was measured by CCK-8 assay. Absorbance was measured at 450 nm. The IC50 values were calculated by GraphPad Prism 7 (GraphPad Software Inc., San Diego, CA, USA).

HCT116 cells = experiment: CCK-8 cell viability assay, HCT116; type: cell-based, Human; conditions: Homo sapiens, HCT-116; CCK-8 assay, 48 h
Method: as §1

HL60 cells = experiment: CCK-8 cell viability assay, HL60; type: cell-based; conditions: Homo sapiens, HL-60; CCK-8 assay
Method: as §1

ATG4B = target: T1, ATG4B (Homo sapiens, UniProt Q9Y4P1); experiment: FRET-based assay for ATG4B activity
T1 sequence (Q9Y4P1 1-393): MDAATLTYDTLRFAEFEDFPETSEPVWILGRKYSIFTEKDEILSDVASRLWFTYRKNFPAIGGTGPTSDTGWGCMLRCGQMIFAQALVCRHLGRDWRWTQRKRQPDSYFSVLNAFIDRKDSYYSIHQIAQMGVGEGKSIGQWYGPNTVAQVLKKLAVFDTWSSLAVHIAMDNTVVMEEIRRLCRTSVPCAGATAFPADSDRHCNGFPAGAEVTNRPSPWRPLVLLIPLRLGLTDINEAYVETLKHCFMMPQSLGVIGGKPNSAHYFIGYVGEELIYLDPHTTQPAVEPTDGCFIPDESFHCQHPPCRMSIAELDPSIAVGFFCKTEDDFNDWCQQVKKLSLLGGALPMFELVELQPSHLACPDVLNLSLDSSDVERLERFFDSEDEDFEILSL
Method: A FRET-based assay for detecting ATG4B activity was carried out as described [45].

SMILES	dequenching of DQ-BSA (proteolytic activity of lysosome) [1]	LTR red fluorescence / acidic vesicles [2]	IC50 (HeLa cells)	IC50 (HCT116 cells)	IC50 (HL60 cells)	IC50 (ATG4B)
CO/C1=C\C(C)=C\[C@@H](C)[C@@H](O)[C@@H](C)C/C(C)=C/C=C/[C@H](OC)[C@@H]([C@@H](C)[C@@H](O)[C@H](C)[C@@]2(O)C[C@@H](O)[C@H](C)[C@@H](C(C)C)O2)OC1=O [Baf, Bafilomycin A1, reference compound]	nearly no dequenching of DQ-BSA	–	–	–	–	–
CO[C@H]1C[C@@H]2CC[C@@H](C)[C@@](O)(O2)C(=O)C(=O)N2CCCC[C@H]2C(=O)O[C@H]([C@H](C)C[C@@H]2CC[C@@H](O)[C@H](OC)C2)CC(=O)[C@H](C)/C=C(\C)[C@@H](O)[C@@H](OC)C(=O)[C@H](C)C[C@H](C)/C=C/C=C/C=C/1C [Rap, rapamycin, reference compound]	–	stable	–	–	–	–
COc1ccccc1/C=C/c1cc(O)cc(=O)[nH]1 [XGS00025]	–	–	> 100 µM	> 100 µM	> 100 µM	29.2 µM
Cc1ccc(/C=C/c2cc(O)cc(=O)[nH]2)o1 [XGS00031]	–	–	> 100 µM	> 100 µM	> 100 µM	13 µM
COc1cccc(/C=C/c2cc(N)cc(O)n2)c1 [XGS00043]	–	–	> 100 µM	> 100 µM	> 100 µM	36.3 µM
Nc1cc(O)nc(/C=C/c2ccc(Cl)cc2)c1 [XGS00046]	–	–	> 100 µM	> 100 µM	> 100 µM	39.1 µM
Nc1cc(O)nc(/C=C/c2ccco2)c1 [XGS00048]	–	–	> 100 µM	> 100 µM	> 100 µM	13.8 µM
CCN1C(=O)/C(=C\c2cn(CC(=O)O)c3ccccc23)C(=O)N(c2ccc(Cl)cc2)C1=S [XGS00119]	–	–	> 100 µM	> 100 µM	> 100 µM	7.37 µM
N/C(=N\[N+](=O)[O-])N/N=C/c1ccc(-c2ccc(-n3cnnn3)cc2)o1 [XOS00117]	–	–	> 100 µM	> 100 µM	> 100 µM	6.65 µM
CC(=O)Nc1ccc(/N=C/c2c(C)c(C#N)c3[nH]c4cc(C)ccc4n3c2=O)cc1 [XOS00125]	–	–	> 100 µM	> 100 µM	> 100 µM	40.6 µM
CCOC(=O)c1cnc2c(/N=N/c3ccc(OCC)cc3)c(N)nn2c1N [XOS00149]	–	–	> 100 µM	> 100 µM	> 100 µM	44 µM
COc1cccc(-c2cc3nc(-c4cccnc4)c(C#N)c(N)n3n2)c1 [XOS00154]	–	–	> 100 µM	> 100 µM	> 100 µM	40.7 µM
CCOC(=O)c1c(-c2ccccc2)oc2ccc(O)cc12 [XOS00163]	–	–	32 µM	23 µM	31.7 µM	6.2 µM
COc1cccc(-c2cc3c([N+](=O)[O-])cc([N+](=O)[O-])cc3[nH]2)c1OC [XOS00176]	–	–	> 100 µM	> 100 µM	> 100 µM	23.8 µM
O=C(Nc1ccc(-c2cc3ccccc3o2)cc1)c1ccco1 [XOS00201]	–	–	25.6 µM	19.6 µM	> 100 µM	8.98 µM
COc1c2c(cc3oc(=O)c4c5cc(O)c(O)cc5oc4c13)OCC2 [XOS00207]	–	–	87.1 µM	17.6 µM	60.7 µM	2.31 µM
